Results reported in patent US10654873B2, “Cytotoxic agents and conjugates thereof” (priority 2016, dated 2020).
Entries after “also recorded” stand apart in the source; their conditions may differ. Where two headings read alike, the source gives them in different places.

Assays:
[1] = Stability of atropisomers on heating in DMSO (HPLC); format: physicochemical; conditions: 50° C., 1 h
Protocol: The stability of the atropisomers was investigated by heating solutions of compounds 80 and 81 in DMSO at 50° C. for 1 h.

[2] = tested on: HER2-positive tumour cell line, SK-BR-3; assay: In vitro potency / cell viability assay (CellTiter-Glo) in SK-BR-3 cell line; format: cell-based
Source text: (§1) Loss of tumour cell viability following treatment with cytotoxic drugs or ADCs in vitro can be measured by growing cell lines in the presence of increasing concentrations of drugs or ADCs and quantifying the loss of proliferation or metabolic activity using CellTiter-Glo® Luminescence reagent (Promega). The protocol describes cell seeding, drug treatment and determination of the cell viability in reference to untreated cells based on ATP synthesis, which is directly related to the number of cells present in the well.
HER2-positive tumour cell line, SK-BR-3 (ATCC-HTB-30), was grown in McCoy's 5A medium complemented with 10% foetal bovine serum, 100 u/mL Penicillin and 100 μg/mL Streptomycin. SK-BR-3 cells were detached, seeded at 5,000 cells per well (100 μL/well) into poly-D-lysine coated clear bottom white-walled 96-well plates and incubated for 24 h at 37° C. and 5% CO2.
Serial dilutions of compounds were prepared in triplicate using the relevant cell culture medium as diluent. The CD30-positive Karpas-299 cells were treated with 50 μL compounds at 2× assay concentration. Medium from the SK-BR-3 assay plates was removed and replaced by 100 μL serially diluted compounds at 1× assay concentration. The assay concentrations are specified in Table 1. The cells were then incubated with the compounds (total volume 100 μL/well), at 37° C. and 5% CO2 for a further 96 h.
(§2) At the end of the incubation, cell viability was measured using the CellTiter-Glo® Luminescence reagent, as described by the manufacturer's instructions. The data was subsequently analysed using a four parameter non-linear regression model.
(§3) Viability was expressed as % of untreated cells and calculated using the following formula: […]
The % viability (Y-axis) was plotted against the logarithm of drug concentration in nM (X-axis) to extrapolate the IC50 values for all compounds.

[3] = tested on: CD30-positive human T cell lymphoma cell line Karpas-299; assay: In vitro potency / cell viability assay (CellTiter-Glo) in Karpas-299 cell line; format: cell-based; conditions: 96 h incubation
Source text: as §1
The CD30-positive human T cell lymphoma cell line Karpas-299 was obtained from Dr Abraham Karpas at the University of Cambridge. The cells were grown in RPMI medium supplemented with 10% foetal bovine serum, 100 U/mL Penicillin and 100 μg/mL Streptomycin. […]
as §2, §3
Loss of tumour cell viability following treatment with ADCs incorporating maytansinoids of the invention was tested by growing cell lines in the presence of increasing concentrations of ADCs and quantifying the loss of proliferation or metabolic activity as described in Example 2. […]

[4] = Stability in mouse serum (LC-Orbitrap-MS); format: in vitro ADME; conditions: 37° C., 4 and 7 days, 90% (v/v) mouse serum, 0.05 mg/mL
Protocol: Solutions of compounds 26 and 78 (comparator) in a 50/50 v/v mixture of DMF:buffer solution (20 mM sodium phosphate, 150 mM sodium chloride, 20 mM EDTA, pH 7.5) (0.5 mg/mL) were diluted to 0.05 mg/mL in mouse serum (90% (v/v) serum content). An aliquot of each sample corresponding to the ‘0’ time point was immediately frozen at −80° C., while the remaining sample was incubated at 37° C. for 7 d. Additional aliquots were taken after 4 and 7 d and frozen at −80° C. Prior to analysis, the samples were removed from the freezer and maytansinoid-related species were extracted from the serum by protein precipitation. Protein precipitation was performed by adding acetonitrile (75% v/v) to each time-point aliquot, and after gentle mixing, allowing the mixtures to stand at 4° C. for 2 h. The precipitated protein was then separated by centrifugation (1400×g, 30 min, 4° C.) and the supernatant containing the extracted maytansinoid-related species were analysed by LC-Orbitrap-MS.
The samples were further diluted with water resulting in a 15% v/v acetonitrile solution. An aliquot (2.5 μL) of each solution was then injected onto a nano-liquid chromatography MS system, consisting of a Dionex ULTIMATE 3000 UPLC fitted with a PepMap C18 column (0.075×150 mm), coupled online to an Orbitrap-MS instrument operated in ES positive mode at 75K resolution using lock mass. […]

[5] = free compounds, as described in Example 2, read-out: Average IC50 (nM) SK-BR-3 Cell line
[6] = Homo sapiens, SK-BR-3, 96 h, 96 h incubation, CellTiter-Glo, read-out: IC50 (nM) SKBR3 Cell line
[7] = Homo sapiens, SK-BR-3, free compounds, as described in Example 2, read-out: Average IC50 (nM) SK-BR-3 Cell line

COc1cc2cc(c1-c1ccc(N)cc1Cl)N(C)C(=O)C[C@H](OC(=O)C(C)C)[C@]1(C)O[C@H]1[C@H](C)[C@@H]1C[C@@](O)(NC(=O)O1)[C@H](OC)/C=C/C=C(\C)C2 (single isomer, unassigned) [Compound 80]
stability of atropisomers (HPLC chromatograms) [1]: no changes were observed | IC50 [2, 5]: 3.6 nM

COc1cc2cc(c1-c1ccc(N)cc1Cl)N(C)C(=O)C[C@H](OC(=O)C(C)C)[C@]1(C)O[C@H]1[C@H](C)[C@@H]1C[C@@](O)(NC(=O)O1)[C@H](OC)/C=C/C=C(\C)C2 (single isomer, unassigned) [Compound 81]
stability of atropisomers (HPLC chromatograms) [1]: no changes were observed | IC50 [2, 5]: 0.9 nM

COc1cc2cc(c1-c1ccc(NC(=O)OC(C)(C)C)cc1)N(C)C(=O)C[C@H](OC(=O)C(C)C)[C@]1(C)O[C@H]1[C@H](C)[C@@H]1C[C@@](O)(NC(=O)O1)[C@H](OC)/C=C/C=C(\C)C2 [Compound 3, 4-(N-Bocamino)phenyl-AP3]
IC50 [2, 6]: 4 nM | IC50 [3]: 0.7 nM

COc1cc2cc(c1-c1ccc(N)cc1)N(C)C(=O)C[C@H](OC(=O)C(C)C)[C@]1(C)O[C@H]1[C@H](C)[C@@H]1C[C@@](O)(NC(=O)O1)[C@H](OC)/C=C/C=C(\C)C2 [Compound 4]
IC50 [2, 7]: 1.2 nM

COc1cc2cc(c1-c1ccc(N)c(Cl)c1)N(C)C(=O)C[C@H](OC(=O)C(C)C)[C@]1(C)O[C@H]1[C@H](C)[C@@H]1C[C@@](O)(NC(=O)O1)[C@H](OC)/C=C/C=C(\C)C2 [Compound 5]
IC50 [2, 7]: 1.2 nM

COc1cc2cc(c1-c1ccc(NC(=O)CCC(C)S)cc1)N(C)C(=O)C[C@H](OC(=O)C(C)C)[C@]1(C)O[C@H]1[C@H](C)[C@@H]1C[C@@](O)(NC(=O)O1)[C@H](OC)/C=C/C=C(\C)C2 (stereo partly drawn) [Compound 6]
IC50 [2, 7]: 2.7 nM

COc1cc2cc(c1-c1ccc(NC(=O)CCC(C)(C)S)cc1)N(C)C(=O)C[C@H](OC(=O)C(C)C)[C@]1(C)O[C@H]1[C@H](C)[C@@H]1C[C@@](O)(NC(=O)O1)[C@H](OC)/C=C/C=C(\C)C2 [Compound 9]
IC50 [2, 7]: 7.4 nM

COc1cc2cc(c1-c1ccc(NC(=O)CCCS)cc1)N(C)C(=O)C[C@H](OC(=O)C(C)C)[C@]1(C)O[C@H]1[C@H](C)[C@@H]1C[C@@](O)(NC(=O)O1)[C@H](OC)/C=C/C=C(\C)C2 [Compound 12]
IC50 [2, 7]: 4.2 nM

COc1cc2cc(c1-c1ccc(NC(=O)CCS)cc1)N(C)C(=O)C[C@H](OC(=O)C(C)C)[C@]1(C)O[C@H]1[C@H](C)[C@@H]1C[C@@](O)(NC(=O)O1)[C@H](OC)/C=C/C=C(\C)C2 [Compound 15]
IC50 [2, 7]: 5.4 nM

COc1cc2cc(c1-c1ccc(NC(=O)CCC(C)S)c(Cl)c1)N(C)C(=O)C[C@H](OC(=O)C(C)C)[C@]1(C)O[C@H]1[C@H](C)[C@@H]1C[C@@](O)(NC(=O)O1)[C@H](OC)/C=C/C=C(\C)C2 (stereo partly drawn) [Compound 18]
IC50 [2, 7]: 0.9 nM

COc1cc2cc(c1-c1ccc(NC(=O)CCC(C)(C)S)c(Cl)c1)N(C)C(=O)C[C@H](OC(=O)C(C)C)[C@]1(C)O[C@H]1[C@H](C)[C@@H]1C[C@@](O)(NC(=O)O1)[C@H](OC)/C=C/C=C(\C)C2 [Compound 21]
IC50 [2, 7]: 1.7 nM

COc1cc2cc(c1-c1ccc(NC(=O)CCS)c(Cl)c1)N(C)C(=O)C[C@H](OC(=O)C(C)C)[C@]1(C)O[C@H]1[C@H](C)[C@@H]1C[C@@](O)(NC(=O)O1)[C@H](OC)/C=C/C=C(\C)C2 [Compound 23]
IC50 [2, 7]: 4.2 nM

COc1cc2cc(c1-c1ccc(NC(=O)CCC(C)SSC(C)CCC(=O)O)cc1)N(C)C(=O)C[C@H](OC(=O)C(C)C)[C@]1(C)O[C@H]1[C@H](C)[C@@H]1C[C@@](O)(NC(=O)O1)[C@H](OC)/C=C/C=C(\C)C2 (stereo partly drawn) [Compound 26]
degradation in mouse serum [4]: no comparable degradation products were observed; also recorded: no degradation products equivalent to A and B

COc1cc2cc(c1/C=C/CN)N(C)C(=O)C[C@H](OC(=O)C(C)C)[C@]1(C)O[C@H]1[C@H](C)[C@@H]1C[C@@](O)(NC(=O)O1)[C@H](OC)/C=C/C=C(\C)C2 [Compound 31, reference compound]
IC50 [2, 7]: 33.4 nM

COc1cc2cc(c1-c1ccc(N)cc1)N(C)C(=O)C[C@H](OC(=O)[C@H](C)N(C)C(C)=O)[C@]1(C)O[C@H]1[C@H](C)[C@@H]1C[C@@](O)(NC(=O)O1)[C@H](OC)/C=C/C=C(\C)C2 [Compound 32]
IC50 [2, 7]: 5.5 nM

COc1cc2cc(c1Cl)N(C)C(=O)C[C@H](OC(=O)[C@H](C)N(C)C(=O)CCC(C)SSC(C)CCC(=O)O)[C@]1(C)O[C@H]1[C@H](C)[C@@H]1C[C@@](O)(NC(=O)O1)[C@H](OC)/C=C/C=C(\C)C2 (stereo partly drawn) [Compound 78, reference compound]
degradation in mouse serum [4]: significant degradation

COc1cc2cc(c1Cl)N(C)C(=O)C[C@H](OC(=O)[C@H](C)N(C)C(=O)CCS)[C@]1(C)O[C@H]1[C@H](C)C1C[C@@](O)(NC(=O)O1)[C@H](OC)/C=C/C=C(\C)C2 [DM1, reference compound]
IC50 [2, 6]: 10 nM | IC50 [3]: 9 nM
